# In patent US20190151312A1, “HEPARAN SULFATE BIOSYNTHESIS INHIBITORS FOR THE TREATMENT OF DISEASES” (BioMarin Pharmaceutical Inc., priority 2014, published 2019):
# pIC50: −log10 of the molar value. Read-outs that look alike come from different tables or passages of the source.
# Test system: GM01896 cells (MPS II dermal fibroblasts)
# Assay: Assay 1: MPS cellular assay, MPS II (heparan sulfate disaccharide biomarkers by LC-MS)
# Assay type: cell-based, human
# Settings: Assay 1 for MPS II, heparan sulfate disaccharide biomarkers (I2a4, I2a6, I2S0 and/or I2S6), read-out: IC50 Range
# In short: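 Heparan sulfate disaccharide biomarkers quantified by LC-MS after heparinase I/II/III digestion and isotopic aniline labelling, using GM01896 MPS II fibroblasts exposed to compound (at or below 30 μM, 4-21 days). Values given as IC50 by curve fitting; cell viability checked with alamar blue or ATP.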
Structure (SMILES),"pIC50 (Homo sapiens, Fibroblast)",pIC50
"Cn1ncc2ccc(-c3cc(Nc4ccc(-c5nnc(C(F)(F)F)[nH]5)cc4)nc(N4CCOCC4)n3)cc21 [[6-(1-methyl(1H-indazol-6-yl))-2-morpholin-4-ylpyrimidin-4-yl]{4-[5-(trifluoromethyl)(4H-1,2,4-triazol-3-yl)]phenyl}amine]",5.30 to 6.00,
Cc1nn(CCN(C)C)c2cc(-c3cc(Nc4ccc(Cl)cc4)nc(N4CCOCC4)n3)ccc12 [[2-(6-{6-[(4-chlorophenyl)amino]-2-morpholin-4-ylpyrimidin-4-yl}-3-methyl(1H-indazoly))ethyl]dimethylamine],,5.30 to 6.00
Cn1cnc2cc(-c3cc(Nc4ccc(Cl)cc4)nc(N4CCOCC4)n3)ccc21 [(4-chlorophenyl)[6-(1-methylbenzimidazol-5-yl)-2-morpholin-4-ylpyrimidin-4-yl]amine],6.00 to 6.30,
Cc1nc2ccc(-c3cc(Nc4ccc(Cl)cc4)nc(N4CCOCC4)n3)cc2n1CCCN1CCCC1 [(4-chlorophenyl){6-[2-methyl-1-(3-pyrrolidinylpropyl)benzimidazol-6-yl]-2-morpholin-4-ylpyrimidin-4-yl}amine],6.00 to 6.30,
Cn1nc(CCN2CCOCC2)c2ccc(-c3cc(Nc4ccc(-n5cccn5)cc4)nc(N4CCOCC4)n3)cc21 [{6-[1-methyl-3-(2-morpholin-4-ylethyl)(1H-indazol-6-yl)]-2-morpholin-4-ylpyrimidin-4-yl}(4-pyrazolylphenyl)amine],,> 6.30
Clc1ccc(Nc2cc(-c3ccc4cnn(C5CC5)c4c3)nc(N3CCOCC3)n2)cc1 [(4-chlorophenyl)[6-(1-cyclopropyl(1H-indazol-6-yl))-2-morpholin-4-ylpyrimidin-4-yl]amine],5.30 to 6.00,
"Cc1nnc(-c2ccc(Nc3cc(-c4ccc5cnn(CCN6CCOCC6)c5c4)nc(N4CCOCC4)n3)cc2)[nH]1 [[4-(5-methyl(4H-1,2,4-triazol-3-yl))phenyl]{2-morpholin-4-yl-6-[1-(2-morpholin-4-ylethyl)(1H-indazol-6-yl)]pyrimidin-4-yl}amine]",> 6.30,
"CNC(=O)c1ccc(Nc2cc(-c3ccc4nc(C)n(C)c4c3)nc(N3CCOCC3)n2)cc1 [(4-{[6-(1,2-dimethylbenzimidazol-6-yl)-2-morpholin-4-ylpyrimidin-4-yl]amino}phenyl)-N-methylcarboxamide]",> 6.30,
"Cn1nc(CCN2CCOCC2)c2ccc(-c3cc(Nc4ccc(-n5nccn5)cc4)nc(N4CCOCC4)n3)cc21 [{6-[1-methyl-3-(2-morpholin-4-ylethyl)(1H-indazol-6-yl)]-2-morpholin-4-ylpyrimidin-4-yl}(4-(1,2,3-triazol-2-yl)phenyl)amine]",> 6.30,
Clc1ccc(Nc2cc(-c3ccc4nc[nH]c4c3)nc(N3CCOCC3)n2)cc1 [(6-benzimidazol-6-yl-2-morpholin-4-ylpyrimidin-4-yl)(4-chlorophenyl)amine],6.00 to 6.30,
"CCn1ccc2ccc(Nc3cc(-c4ccc5c(C)nn(C)c5c4)nc(N4CCOCC4)n3)cc21 [[6-(1,3-dimethyl(1H-indazol-6-yl))-2-morpholin-4-ylpyrimidin-4-yl](1-ethylindol-6-yl)amine]",5.30 to 6.00,
CNC(=O)c1ccc(Nc2cc(-c3ccc4nc[nH]c4c3)nc(N3CCOCC3)n2)cn1 [{5-[(6-benzimidazol-6-yl-2-morpholin-4-ylpyrimidin-4-yl)amino](2-pyridyl)}-N-methylcarboxamide],5.30 to 6.00,
"Cc1nnc(-c2ccc(Nc3cc(-c4ccc5c(C)nn(CCN6CCOCC6)c5c4)nc(N4CCOCC4)n3)cc2)[nH]1 [[4-(5-methyl(4H-1,2,4-triazol-3-yl))phenyl]{6-[3-methyl-1-(2-morpholin-4-ylethyl)(1H-indazol-6-yl)]-2-morpholin-4-ylpyrimidin-4-yl}amine]",> 6.30,
Clc1ccc(Nc2cc(-c3ccc4c(c3)ncn4C3COC3)nc(N3CCOCC3)n2)cc1 [(4-chlorophenyl)[2-morpholin-4-yl-6-(1-oxetan-3-ylbenzimidazol-5-yl)pyrimidin-4-yl]amine],6.00 to 6.30,
"Cc1nn(C)c2cc(-c3cc(Nc4ccc5c(C)c(C)n(C)c5c4)nc(N4CCOCC4)n3)ccc12 [[6-(1,3-dimethyl(1H-indazol-6-yl))-2-morpholin-4-ylpyrimidin-4-yl](1,2,3-trimethylindol-6-yl)amine]",5.30 to 6.00,
"Cn1ncc2ccc(-c3cc(Nc4ccc(Cl)cc4)nc(N4CCOCC4)n3)nc21 [(4-chlorophenyl)[6-(1-methylpyrazolo[4,5-e]pyridin-6-yl)-2-morpholin-4-ylpyrimidin-4-yl]amine]",5.30 to 6.00,
Cn1ncc2ccc(-c3cc(Nc4ccc5c(c4)nnn5C)nc(N4CCOCC4)n3)cc21 [[6-(1-methyl(1H-indazol-6-yl))-2-morpholin-4-ylpyrimidin-4-yl](1-methylbenzotriazol-5-yl)amine],5.30 to 6.00,
Cc1nn(CCN2CCOCC2)c2cc(-c3cc(Nc4ccc(Cl)cc4)nc(N4CCOCC4)n3)ccc12 [(4-chlorophenyl){6-[3-methyl-1-(2-morpholin-4-ylethyl)(1H-indazol-6-yl)]-2-morpholin-4-ylpyrimidin-4-yl}amine],6.00 to 6.30,
Cc1c(Nc2ccc(Cl)cc2)nc(N2CCOCC2)nc1-c1ccc2cnn(C)c2c1 [(4-chlorophenyl)[5-methyl-6-(1-methyl(1H-indazol-6-yl))-2-morpholin-4-ylpyrimidin-4-yl]amine],5.30 to 6.00,
"Cc1nnc(-c2ccc(Nc3cc(-c4ccc5c(C)nn(C)c5c4)nc(N4CCOCC4)n3)cc2)[nH]1 [[6-(1,3-dimethyl(1H-indazol-6-yl))-2-morpholin-4-ylpyrimidin-4-yl][4-(5-methyl(4H-1,2,4-triazol-3-yl))phenyl]amine]",> 6.30,
COc1cc(Nc2cc(-c3ccc4cnn(C)c4c3)nc(N3CCOCC3)n2)ccn1 [(2-methoxy(4-pyridyl))[6-(1-methyl(1H-indazol-6-yl))-2-morpholin-4-ylpyrimidin-4-yl]amine],6.00 to 6.30,
COc1ccc(Nc2cc(-c3ccc4ncn(C)c4c3)nc(N3CCOCC3)n2)cc1 [(4-methoxyphenyl)[6-(1-methylbenzimidazol-6-yl)-2-morpholin-4-ylpyrimidin-4-yl]amine],5.30 to 6.00,
Cc1nc2ccc(-c3cc(Nc4ccc(Cl)cc4)nc(N4CCOCC4)n3)cc2n1CCN(C)C [[2-(6-{6-[(4-chlorophenyl)amino]-2-morpholin-4-ylpyrimidin-4-yl}-2-methylbenzimidazolyl)ethyl]dimethylamine],,5.30 to 6.00
CNC(=O)c1ccc(Nc2cc(-c3ccc4cnn(CCN5CCCC5)c4c3)nc(N3CCOCC3)n2)cc1 [N-methyl[4-({2-morpholin-4-yl-6-[1-(2-pyrrolidinylethyl)(1H-indazol-6-yl)]pyrimidin-4-yl}amino)phenyl]carboxamide],6.00 to 6.30,
Cc1c[nH]nc1-c1ccc(Nc2cc(-c3ccc4cnn(C)c4c3)nc(N3CCOCC3)n2)cc1 [[6-(1-methyl(1H-indazol-6-yl))-2-morpholin-4-ylpyrimidin-4-yl][4-(4-methylpyrazolyl)phenyl]amine],5.30 to 6.00,
Cn1nc(CN2CCCC2)c2ccc(-c3cc(Nc4ccc(Cl)cc4)nc(N4CCOCC4)n3)cc21 [(4-chlorophenyl){6-[1-methyl-3-(pyrrolidinylmethyl)(1H-indazol-6-yl)]-2-morpholin-4-ylpyrimidin-4-yl}amine],6.00 to 6.30,
CNC(=O)c1ccc(Nc2cc(-c3ccc4cnn(CCCN5CCCC5)c4c3)nc(N3CCOCC3)n2)cc1 [N-methyl[4-({2-morpholin-4-yl-6-[1-(3-pyrrolidinylpropyl)(1H-indazol-6-yl)]pyrimidin-4-yl}amino)phenyl]carboxamide],> 6.30,
